How the values were obtained:
[1] = Screening of cytisine salt formation with acid salt formers; format: physicochemical; settings: equimolar acid, 40° C. one hour, cooled to ambient
Protocol: Stock solutions of acid salt formers were prepared in the carrier solvents and having the molarities detailed in the following Table 1 below:
Stock solutions of cytisine API (non-synthetic) were also prepared in CH3CN and in Me-THF. 2.4 g of cytisine was dissolved in 60 ml of 2-Me-THF heated to a temperature of 60° C. 2.4 g of cytisine was dissolved in 24 ml of CH3CN heated to a temperature of 40° C.
200 ml capacity tubes heated to 40° C. were charged with 2 ml or 5 ml of the cytisine stock solution. The acid stock solutions were then added to the heated tubes in equimolar amounts. The solutions were held at 40° C. for one hour and then allowed to cool to ambient temperature (˜18° C.) for 18 hours.
Filtration of the obtained solids was then carried out using a PTFE fritted column and the obtained solids were dried at 50° C. for 48 hours. The properties of the obtained products were then analysed, and the outcome of this screen and the properties of the obtained products are summarised in Table 2 below: […]

[2] = Lactose compatibility: stability of cytisine and cytisine salts with lactose on storage, cytisine by HPLC; format: physicochemical; settings: 25° C./60% RH and 40° C./75% RH, 7 and 14 days
Protocol: The stability of formulations of cytisine and the present cytisine salts with lactose was investigated. Samples were stored at 25° C. and 60% relative humidity (RH) and at 40° C. and 75% RH and evaluated after 7 and 14 days. […] Thus, these salts effectively improve the stability of cytisine and facilitates its formulation with compositions comprising lactose.

Ascorbate
Assessment (salt preparation) ([1]; API stock solution in 2-MeTHF): Secondary precipitations, unstable salt | Assessment (salt preparation) ([1]; API stock solution in CH3CN): Secondary precipitations, unstable salt

CS(=O)(=O)O.O=c1cccc2n1C[C@@H]1CNC[C@H]2C1 [Mesylate, Cytisine Mesylate]
Degradation rate of cytisine compared with free base form [2]: degraded at a substantially lower rate | Assessment (salt preparation) ([1]; API stock solution in 2-MeTHF): Excellent salt profile | Assessment (salt preparation) ([1]; API stock solution in CH3CN): Excellent salt profile

O=C(O)C=CC(=O)O.O=c1cccc2n1CC1CNCC2C1 (stereo not shown) [Maleate, Cytisine Maleate]
Assessment (salt preparation) ([1]; API stock solution in 2-MeTHF): Excellent salt profile | Assessment (salt preparation) ([1]; API stock solution in CH3CN): Excellent salt profile

O=C(O)c1cc(O)ccc1O.O=c1cccc2n1C[C@@H]1CNC[C@H]2C1 [Gentisate, Cytisine Gentisate]
Degradation rate of cytisine compared with free base form [2]: degraded at a substantially lower rate | Assessment (salt preparation) ([1]; API stock solution in 2-MeTHF): Excellent salt profile | Assessment (salt preparation) ([1]; API stock solution in CH3CN): Excellent salt profile

CC(=O)O [Acetate]
Assessment (salt preparation) ([1]; API stock solution in 2-MeTHF): Secondary precipitations, unstable salt | Assessment (salt preparation) ([1]; API stock solution in CH3CN): Secondary precipitations, unstable salt

Glucuronate
Assessment (salt preparation) ([1]; API stock solution in 2-MeTHF): Failed to yield solid | Assessment (salt preparation) ([1]; API stock solution in CH3CN): Failed to yield solid

Benzoate
Assessment (salt preparation) ([1]; API stock solution in 2-MeTHF): Failed to yield solid | Assessment (salt preparation) ([1]; API stock solution in CH3CN): Failed to yield solid
